Where “and” joins values, the source holds several entries; their conditions need not be identical. Equal entries are not always repeated. Entries after “also recorded” stand apart in the source; their conditions may differ.
How the values were obtained:
rabbits = test: Eye irritation testing (AKP-001 instillation); type: in vivo, rabbit
Experimental: Rabbits that met the above criteria were used in the testing. The testing was carried out using a total of 4 rabbits. Fifty μl of 0.1 mM AKP-001 was instilled into the right eyes of the rabbits, and the eyes were maintained in a closed state for 30 seconds. The left eyes were instilled with a vehicle in the same manner. This operation was performed every 30 minutes and 10 times in total.
The anterior eye part was observed before and after the instillation using a slit lamp microscope (SL-D7, Topcon). The anterior eye part was stained with fluorescein sodium test paper (Showa Yakuhin Kako Co., Ltd.) and observed with a slit lamp microscope with regard to the presence or absence of corneal epithelial disorder. Further, the corneal thickness, corneal shape, and corneal volume thereof were analyzed using Pentacam® HR (OCULUS). The corneal endothelium was observed using a scanning slit-type, contact-type corneal endothelium specular microscope (Konan Medical, Inc.). Further, the central corneal thickness was measured using an ultrasonic pachymeter (SP-100, Tomey Corporation), and the intraocular pressure was measured using Tonovet® (ME Technica).
Corneal transparency was evaluated by the following Grading.
Opacity: degree of turbidity (the most turbid area is read.)

[1] = test system: Fuchs' endothelial corneal dystrophy patient-derived immortalized corneal endothelial cells; test: Cell damage inhibitory effect on iFECD stimulated with TGF-β2 (phase contrast microscope); type: cell-based, human
Experimental: The medium was removed from the culture dish in which Fuchs' endothelial corneal dystrophy patient-derived immortalized corneal endothelial cells (hereinafter, referred to as disease model cells) were being cultured, and the cells were supplemented with 1×PBS (−) that was preheated to 37° C., and were washed. This operation was repeated twice. The cells were supplemented with 1×PBS (−) again and incubated for 5 minutes at 37° C. (5% CO2). After the PBS (−) was removed, the cells were supplemented with 0.05% Trypsin-EDTA (nacalai tesque, 32778-34) and incubated for 5 minutes at 37° C. (5% CO2). The cells were then suspended in a medium, and collected by centrifugation at 1500 rpm for 3 minutes. DMEM (nacalai tesque, 08456-36)+10% FBS (Biowest, S1820-500)+1% P/S (nacalai tesque, 26252-94) was used as the medium. The disease model cells were seeded in a 6-well plate at a rate of 1.5×10^5 cells per well and cultured at 37° C. (5% CO2) for 48 hours. DMEM+10% FBS+1% P/S was used as the medium.
After 48 hours, the medium was removed, and AKP-001, SB203580 (Cayman, 13067), PH-797804 (Selleck Chemicals, S2726) and VX-702 (Selleck Chemicals, 56005) were added to DMEM+2% FBS+1% P/S so that the final concentration was 0.01, 0.03, 0.1, 0.3, 1, 3, 10 and 30 μM, followed by culturing as 24-hour pretreatment. After 24 hours, the medium was removed, and AKP-001, 5B203580 (Cayman, 13067), PH-797804 (Selleck Chemicals, S2726), or VX-702 (Selleck Chemicals, S6005), together with 100 ng/ml Recombinant Human TGF-β2 (R&D systems, RND302-B2-002), were added to DMEM+2% FBS+1% P/S so that the final concentration was 0.01 μM, 0.03 μM, 0.1 μM, 0.3 μM, 1 μM, 3 μM, 10 μM, and 30 μM, followed by culturing for 24 hours. After 24 hours, cell damage was evaluated by observation with a phase contrast microscope. As a control, immortalized corneal endothelial cells that were not stimulated with TGF-β were used.

[2] = test system: immortalized human corneal endothelial cells (iHCEC); test: Cell damage by ER stress induced by thapsigargin; type: cell-based; settings: 24 hours pretreatment, 20 μM thapsigargin 3 hours
Experimental: The medium was removed from a culture dish in which immortalized human corneal endothelial cells (iHCEC) were being cultured, and the cells were supplemented with 1×PBS (−) that was preheated to 37° C., and were washed. This operation was repeated twice. The cells were supplemented again with 1×PBS (−) and incubated for 5 minutes at 37° C. (5% CO2). After removing the PBS (−), the cells were supplemented with 0.05% Trypsin-EDTA (Nacalai Tesque, 32778-34) and incubated for 5 minutes at 37° C. (5% CO2). The cells were then suspended in a medium, and collected by centrifugation at 1500 rpm for 3 minutes. DMEM (Nacalai Tesque, 08456-36)+10% FBS (Biowest, S1820-500)+1% P/S (Nacalai Tesque, 26252-94) was used as the medium. Immortalized human corneal endothelial cells (lot: iHCEC1-1) were seeded on a 12-well plate at a ratio of 8×10^4 cells per well and cultured for 48 hours at 37° C. (5% CO2) while using DMEM+10% FBS+1% P/S as the medium. The medium was then removed, and each inhibitor was added to culture the cells for 24 hours using DMEM+2% FBS+1% P/S as the medium. The medium was then removed. A medium (DMEM+2% FBS+1% P/S) containing 20 μM thapsigargin (Wako, 209-17281) and AKP-001 was added to culture the cells for 3 hours. Then, the cell morphology and apoptosis were observed using a phase contrast microscope.

[3] = prior to and after 10 instillations

With O=C(Cc1c(F)cccc1Cl)Nc1onc(-c2ccc(F)cc2)c1-c1ccncn1 [AKP-001, 5-[(2-chloro-6-fluorophenyl)acetylamino]-3-(4-fluorophenyl)-4-(4-pyrimidinyl)isoxazole] the “corneal thickness (Pentacam HR)” value (rabbits; 0.1 mM instilled 10 times) was “No obvious changes”, the “epithelial disorder of the keratoconjunctiva, fluorescein staining” value (rabbits; 0.1 mM instilled 10 times) was “no epithelial disorder of the stained keratoconjunctiva was observed” and the hyperemia (rabbits; 0.1 mM instilled 10 times) was “no hyperemia was observed”. The “inflammation of the anterior eye part” value (rabbits; 0.1 mM instilled 10 times) was “no inflammation or the like was observed; also recorded: no inflammation of the anterior eye part was observed”, the “shape of the cornea (Scheimpflug images)” value (rabbits; 0.1 mM instilled 10 times) was “No obvious change” and the “corneal endothelium, specular microscope images” value (rabbits; 10 instillations) was “No obvious changes”. For the same compound, the “cornea, slit lamp microscope” value (rabbits; 50 μl of 0.1 mM instilled 10 times every 30 minutes) was “transparent”, the corneal transparency score (rabbits; before and after 10 instillations, all the corneas) was “zero and 0” and the “central corneal thickness (ultrasonic pachymeter)” value (rabbits; [3]) was “No significant changes”. For the same compound, the “corneal volume (10 mm diameter, Pentacam HR)” value (rabbits; [3]) was “No significant changes”, the “intraocular pressure (Tonovet)” value (rabbits; [3]) was “No significant changes” and the “damage inhibitory effect for the corneal endothelial cells” value ([1]; 0.01 μM) was “observed”. For the same compound, the “disorder in the corneal endothelial cells” value ([1]; 0.1 μM, 0.3 μM, 1 μM and 3 μM, iFECD, pretreatment, TGF-β2 stimulation) was “effectively suppressed”, the “cell damage inhibitory effect for the corneal endothelial cells” value ([1]; at sub-μM) was “exerted an inhibitory effect; also recorded: able to suppress cell damage” and the “damage to the corneal endothelial cells” value [2] was “suppression of damage to the corneal endothelial cells was observed”.

From US11576914B2, “Drug for treating or preventing disorder caused by TGF-β signaling, and application thereof” (THE DOSHISHA, priority 2017, dated 2023)
